Data taken from ChEMBL document CHEMBL4043266, “Pentacyclic triterpenes as α-glucosidase and α-amylase inhibitors: Structure-activity relationships and the synergism with acarbose” (Bioorg Med Chem Lett, 2017).

Tests used:
[1] = target: T1, Pancreatic alpha-amylase (Sus scrofa) (UniProt P00690)
T1 sequence (whole entry): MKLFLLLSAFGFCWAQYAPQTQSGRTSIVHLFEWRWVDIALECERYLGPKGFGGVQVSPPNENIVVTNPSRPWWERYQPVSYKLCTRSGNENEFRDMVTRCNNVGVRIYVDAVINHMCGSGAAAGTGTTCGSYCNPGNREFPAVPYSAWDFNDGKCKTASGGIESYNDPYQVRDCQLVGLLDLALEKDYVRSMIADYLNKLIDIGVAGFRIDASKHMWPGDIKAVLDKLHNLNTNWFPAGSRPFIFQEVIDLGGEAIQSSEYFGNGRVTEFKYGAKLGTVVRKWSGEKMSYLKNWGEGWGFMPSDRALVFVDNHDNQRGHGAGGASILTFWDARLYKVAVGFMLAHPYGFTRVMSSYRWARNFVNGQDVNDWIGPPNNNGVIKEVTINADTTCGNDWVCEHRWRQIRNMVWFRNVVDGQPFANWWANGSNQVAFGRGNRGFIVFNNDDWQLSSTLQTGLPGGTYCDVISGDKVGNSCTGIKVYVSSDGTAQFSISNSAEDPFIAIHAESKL
Description: Non-competitive inhibition of porcine pancreatic alpha-amylase assessed as inhibitor-enzyme complex using starch as substrate by Lineweaver-Burk plot analysis

[2] = target: T1, Pancreatic alpha-amylase (Sus scrofa); remark: listed apart in the source
Description: Non-competitive inhibition of porcine pancreatic alpha-amylase assessed as inhibitor-enzyme-substrate complex using starch as substrate by Lineweaver-Burk plot analysis

Kii [1]: 28.3 µM
Kis [2]: 25.6 µM
SMILES: C[C@H]1[C@H](C)CC[C@]2(C(=O)O)CC[C@]3(C)C(=CC[C@@H]4[C@@]5(C)C[C@@H](O)[C@H](O)C(C)(C)[C@@H]5CC[C@]43C)[C@H]12
